According to article PMC5061470, “Promiscuous targeting of bromodomains by bromosporine identifies BET proteins as master regulators of primary transcription response in leukemia” (Science Advances, 2016):

Tests used:
Assay type in all cases: cell-based, human
K562 [1] = assay: Genome-wide expression analysis / MetaCore, GSEA; details: K562, 6-hour treatment, 500 nM
MV4;11 [2] = assay: Genome-wide expression analysis / MetaCore, GSEA; details: MV4;11, 6-hour treatment, 500 nM
MV4;11 [3] = assay: cells; details: read-out: IC50, cell proliferation
KASUMI-1 = assay: cells; details: read-out: IC50, cell proliferation
OCI-AML3 = assay: cells; details: read-out: IC50, cell proliferation
K562 [4] = system: K562
K562 [5] = system: K562; remark: listed apart in the source
MV4;11 [6] = system: MV4;11

Molecule | effect on gene expression (K562 [1]) | effect on gene expression (MV4;11 [2]) | IC50 (MV4;11 [3]) [nM] | IC50 (KASUMI-1) [nM] | IC50 (OCI-AML3) [nM] | effect on cell proliferation (K562 [4]) | effect on cell cycle (K562 [5]) | effect on cell cycle (MV4;11 [6])
CCCOc1ccn2c(C(C)=O)cc(-c3ccccc3S(C)(=O)=O)c2c1 [GSK2801] | no significant effect | no significant effect | – | – | – | – | – | –
(+)-JQ1 [reference compound] | – | – | 80.2 | 42.7 | 49.5 | No significant effect | little effect on cell cycle | distinct G1 arrest with reduced S-phase populations
